Experimental data taken from patent US8513251B2, “Pyridazinone compounds” (Takeda Pharmaceutical Company Limited, priority 2009, dated 2013).
Read-outs that look alike come from different tables or passages of the source.

Experiments:
Human PDE10A enzyme = molecular target: T1, Human PDE10A enzyme (Homo sapiens, UniProt Q9Y233); test: PDE enzyme inhibition, SPA (Scintillation Proximity Assay); format: biochemical; settings: for inhibition at 0.1 µM: read-out: Percent inhibition (0.1 μM); for IC50: human PDE10A, [3H]cGMP substrate; for inhibition at 1 µM: compound at 1 μM, read-out: Percent inhibition (1 μM)
T1 construct: Human PDE10A enzyme was generated from Sf9 or COS-7 cells transfected with the full-length gene; His-tag; made in house; host or cells: Sf9 or COS-7 cells
Method: Human PDE10A enzyme was generated from Sf9 or COS-7 cells transfected with the full-length gene. Cloned enzyme was extracted from homogenized cell pellets. The extracted enzyme from Sf9 cells was partially purified using His-tag affinity column. The enzyme was stored at −70° C. until use. PDE activity was measured using a SPA (Scintillation Proximity Assay) (GE Healthcare). To evaluate the inhibitory activity, 10 μL of serial diluted compounds were incubated with 20 μL of PDE enzyme in assay buffer (50 mM HEPES-NaOH, 8.3 mM MgCl2, 1.7 mM EGTA, 0.1% BSA (pH 7.4)) for 30 min. at room temperature. Final concentration of DMSO in the assay was 1 percent as compounds were tested in duplicate in 96-well half-area plates (Corning). To start the reaction, 10 μL of substrate [3H] cGMP (25 or 50 nM; enclosed in SPA kits from GE Healthcare or purchased from PerkinElmer, respectively) was added for a final assay volume of 40 μL. After 60 min incubation at room temperature, yttrium SPA beads containing Zinc sulphate were added (20 μL at 6 mg/mL) to terminate the PDE reaction. After being settled for 60 min., assay plates were counted in a scintillation counter (PerkinElmer) to allow calculation of inhibition rate and IC50. Inhibition rate was calculated on the basis of 0% control wells with DMSO and 100% control wells without enzyme.

T1 sequence (Q9Y233 267-1055): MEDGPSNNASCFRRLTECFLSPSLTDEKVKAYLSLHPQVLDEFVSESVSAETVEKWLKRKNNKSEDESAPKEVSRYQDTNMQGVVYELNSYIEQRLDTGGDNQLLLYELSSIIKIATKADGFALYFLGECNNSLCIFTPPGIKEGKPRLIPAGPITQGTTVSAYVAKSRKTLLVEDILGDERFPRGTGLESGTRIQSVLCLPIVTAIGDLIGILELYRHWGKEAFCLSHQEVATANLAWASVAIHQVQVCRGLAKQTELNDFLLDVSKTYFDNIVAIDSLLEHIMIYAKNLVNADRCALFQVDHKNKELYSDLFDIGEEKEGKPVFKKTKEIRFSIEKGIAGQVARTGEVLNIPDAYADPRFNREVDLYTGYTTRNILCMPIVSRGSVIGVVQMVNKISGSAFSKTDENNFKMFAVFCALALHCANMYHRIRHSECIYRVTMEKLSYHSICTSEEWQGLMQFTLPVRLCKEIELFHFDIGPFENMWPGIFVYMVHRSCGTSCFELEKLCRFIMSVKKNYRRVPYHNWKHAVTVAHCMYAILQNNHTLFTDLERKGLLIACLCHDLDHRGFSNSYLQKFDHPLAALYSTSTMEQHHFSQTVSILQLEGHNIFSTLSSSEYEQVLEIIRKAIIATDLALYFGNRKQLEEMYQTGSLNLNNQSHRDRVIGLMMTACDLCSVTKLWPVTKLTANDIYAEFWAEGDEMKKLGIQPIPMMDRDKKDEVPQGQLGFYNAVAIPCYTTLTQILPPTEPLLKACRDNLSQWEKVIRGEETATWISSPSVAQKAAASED

Compound | inhibition at 0.1 µM (Human PDE10A enzyme; Table 2, compound at 0.1 μM) | IC50 (Human PDE10A enzyme; Table 2) | also measured
COc1cn(-c2ccc(N3CCC(F)(F)CC3)cc2F)nc(-c2ccnn2-c2ccccc2)c1=O [Example 106, 1-[4-(4,4-Difluoropiperidin-1-yl)-2-fluorophenyl]-5-methoxy-3-(1-phenyl-1H-pyrazol-5-yl)pyridazin-4(1H)-one] | 100% | < 10 nM | –
O=c1ccn(-c2cccc(C(F)(F)F)c2)nc1-c1ccnn1Cc1ccccc1 [Example 153, 3-(1-Benzyl-1H-pyrazol-5-yl)-1-[3-(trifluoromethyl)phenyl]pyridazin-4(1H)-one] | – | – | melting point: 156 to 157 °C
O=c1ccn(-c2ccc(S(=O)(=O)N3CCOCC3)cc2)nc1-c1ccnn1-c1ccccc1 [Example 48, 1-[4-(Morpholin-4-ylsulfonyl)phenyl]-3-(1-phenyl-1H-pyrazol-5-yl)pyridazin-4(1H)-one] | – | – | inhibition at 1 µM (Human PDE10A enzyme; Table 1): 100%; IC50 (Human PDE10A enzyme; Table 1): < 10 nM
COc1cn(-c2ccc(-c3cnn(C(F)F)c3)cc2F)nc(-c2ccnn2-c2ccccc2)c1=O [Example 116, 1-{4-[1-(Difluoromethyl)-1H-pyrazol-4-yl]-2-fluorophenyl}-5-methoxy-3-(1-phenyl-1H-pyrazol-5-yl)pyridazin-4(1H)-one] | 99% | < 10 nM | –
COc1cn(-c2ccc(-n3cccn3)cc2F)nc(-c2ccnn2-c2ccccc2)c1=O [Example 120, 1-[2-Fluoro-4-(1H-pyrazol-1-yl)phenyl]-5-methoxy-3-(1-phenyl-1H-pyrazol-5-yl)pyridazin-4(1H)-one] | – | – | inhibition at 0.1 µM (Human PDE10A enzyme): 100%
COc1cn(-c2ccc(-n3cccn3)cc2F)nc(-c2ccnn2-c2ccccc2F)c1=O [Example 163, 3-[1-(2-Fluorophenyl)-1H-pyrazol-5-yl]-1-[2-fluoro-4-(1H-pyrazol-1-yl)phenyl]-5-methoxypyridazin-4(1H)-one] | 101% | < 10 nM | –
COc1cn(-c2ccc(N3CC(C)(C)CC3=O)cc2F)nc(-c2ccnn2-c2ccccc2)c1=O [Example 189, 1-[4-(4,4-Dimethyl-2-oxopyrrolidin-1-yl)-2-fluorophenyl]-5-methoxy-3-(1-phenyl-1H-pyrazol-5-yl)pyridazin-4(1H)-one] | 100% | < 10 nM | –
COc1cn(-c2ccc(-n3nccc3OC(F)F)cc2F)nc(-c2ccnn2-c2ccccc2)c1=O [Example 123, 1-{4-[5-(Difluoromethoxy)-1H-pyrazol-1-yl]-2-fluorophenyl}-5-methoxy-3-(1-phenyl-1H-pyrazol-5-yl)pyridazin-4(1H)-one] | 99% | < 10 nM | –
COc1cn(-c2ccc(-n3c(=O)ccn3C(F)F)cc2F)nc(-c2ccnn2-c2ccccc2)c1=O [Example 124, 1-{4-[2-(Difluoromethyl)-5-oxo-2,5-dihydro-1H-pyrazol-1-yl]-2-fluorophenyl}-5-methoxy-3-(1-phenyl-1H-pyrazol-5-yl)pyridazin-4(1H)-one] | 97% | < 10 nM | –
COc1cn(-c2ccc(N3CCOC3=O)cc2F)nc(-c2ccnn2-c2ccccc2)c1=O [Example 109, 1-[2-Fluoro-4-(2-oxo-1,3-oxazolidin-3-yl)phenyl]-5-methoxy-3-(1-phenyl-1H-pyrazol-5-yl)pyridazin-4(1H)-one] | 99% | < 10 nM | –
CCOc1cn(-c2cccc(C(F)(F)F)c2)nc(-c2ccnn2-c2ccccc2)c1=O [Example 59, 5-Ethoxy-3-(1-phenyl-1H-pyrazol-5-yl)-1-[3-(trifluoromethyl)phenyl]pyridazin-4(1H)-one] | – | – | inhibition at 1 µM (Human PDE10A enzyme; Table 1): 96%; IC50 (Human PDE10A enzyme; Table 1): 10 to 200 nM
COc1cn(-c2cccc(-c3cnn(C)c3)c2F)nc(-c2ccnn2-c2ccccc2)c1=O [Example 113, 1-[2-Fluoro-3-(1-methyl-1H-pyrazol-4-yl)phenyl]-5-methoxy-3-(1-phenyl-1H-pyrazol-5-yl)pyridazin-4(1H)-one] | 99% | < 10 nM | –
COc1cn(-c2ccc(-n3cc(Cl)cn3)cc2F)nc(-c2ccnn2-c2ccccc2)c1=O [Example 180, 1-[4-(4-Chloro-1H-pyrazol-1-yl)-2-fluorophenyl]-5-methoxy-3-(1-phenyl-1H-pyrazol-5-yl)pyridazin-4(1H)-one] | 96% | < 10 nM | –
COc1cn(-c2ccc(N3CC=CC3)cc2F)nc(-c2ccnn2-c2ccccc2)c1=O [Example 179, 1-[4-(2,5-Dihydro-1H-pyrrol-1-yl)-2-fluorophenyl]-5-methoxy-3-(1-phenyl-1H-pyrazol-5-yl)pyridazin-4(1H)-one] | 96% | < 10 nM | –
COc1cc(-n2cccn2)ccc1-n1cc(OC)c(=O)c(-c2ccnn2-c2ccccc2)n1 [Example 192, 5-Methoxy-1-[2-methoxy-4-(1H-pyrazol-1-yl)phenyl]-3-(1-phenyl-1H-pyrazol-5-yl)pyridazin-4(1H)-one] | 101% | < 10 nM | –
COc1cn(-c2ccc(N3CC(F)(F)C3)cc2F)nc(-c2ccnn2-c2ccccc2)c1=O [Example 102, 1-[4-(3,3-Difluoroazetidin-1-yl)-2-fluorophenyl]-5-methoxy-3-(1-phenyl-1H-pyrazol-5-yl)pyridazin-4(1H)-one] | 103% | < 10 nM | –
COc1cn(-c2ccc(N3CCCC3=O)cc2F)nc(-c2ccnn2-c2ccccc2)c1=O [Example 108, 1-[2-Fluoro-4-(2-oxopyrrolidin-1-yl)phenyl]-5-methoxy-3-(1-phenyl-1H-pyrazol-5-yl)pyridazin-4(1H)-one] | 103% | < 10 nM | –
NC(=O)c1ccc(-n2ccc(=O)c(-c3ccnn3-c3ccccc3)n2)cc1 [Example 49, 4-[4-Oxo-3-(1-phenyl-1H-pyrazol-5-yl)pyridazin-1(4H)-yl]benzamide] | – | – | inhibition at 1 µM (Human PDE10A enzyme; Table 1): 98%; IC50 (Human PDE10A enzyme; Table 1): < 10 nM
COc1cn(-c2ccc(N3CCN(C)C3=O)cc2F)nc(-c2ccnn2-c2ccccc2)c1=O [Example 178, 1-[2-fluoro-4-(3-methyl-2-oxoimidazolidin-1-yl)phenyl]-5-methoxy-3-(1-phenyl-1H-pyrazol-5-yl)pyridazin-4(1H)-one] | 92% | < 10 nM | –
COc1cn(-c2ccc(-n3cccn3)cc2F)nc(-c2ccnn2-c2cccc(Cl)c2)c1=O [Example 164, 3-[1-(3-Chlorophenyl)-1H-pyrazol-5-yl]-1-[2-fluoro-4-(1H-pyrazol-1-yl)phenyl]-5-methoxypyridazin-4(1H)-one] | 101% | < 10 nM | –
COc1cn(-c2ccc(N3CC(F)(F)C(F)(F)C3)cc2F)nc(-c2ccnn2-c2ccccc2)c1=O [Example 104, 1-[2-Fluoro-4-(3,3,4,4-tetrafluoropyrrolidin-1-yl)phenyl]-5-methoxy-3-(1-phenyl-1H-pyrazol-5-yl)pyridazin-4(1H)-one] | 99% | < 10 nM | –
COc1cn(-c2ccc(-n3cc(F)c(F)c3)cc2F)nc(-c2ccnn2-c2ccccc2)c1=O [Example 119, 1-[4-(3,4-Difluoro-1H-pyrrol-1-yl)-2-fluorophenyl]-5-methoxy-3-(1-phenyl-1H-pyrazol-5-yl)pyridazin-4(1H)-one] | 100% | < 10 nM | –
COc1cn(-c2ccc(-c3cnn(C)c3)cc2F)nc(-c2ccnn2-c2ccccc2)c1=O [Example 114, 1-[2-Fluoro-4-(1-methyl-1H-pyrazol-4-yl)phenyl]-5-methoxy-3-(1-phenyl-1H-pyrazol-5-yl)pyridazin-4(1H)-one] | 102% | < 10 nM | –
N#Cc1ccc(-n2ccc(=O)c(-c3ccnn3-c3ccccc3)n2)cc1 [Example 46, 4-[4-Oxo-3-(1-phenyl-1H-pyrazol-5-yl)pyridazin-1(4H)-yl]benzonitrile] | – | – | inhibition at 1 µM (Human PDE10A enzyme; Table 1): 97%; IC50 (Human PDE10A enzyme; Table 1): 10 to 200 nM
COc1cn(-c2ccc(N3CC(C)(C)OC3=O)cc2F)nc(-c2ccnn2-c2ccccc2)c1=O [Example 190, 1-[4-(5,5-Dimethyl-2-oxo-1,3-oxazolidin-3-yl)-2-fluorophenyl]-5-methoxy-3-(1-phenyl-1H-pyrazol-5-yl)pyridazin-4(1H)-one] | 100% | < 10 nM | –
COc1cn(-c2ccc(N3CCC(C)(O)CC3)cc2F)nc(-c2ccnn2-c2ccccc2)c1=O [Example 186, 1-[2-Fluoro-4-(4-hydroxy-4-methylpiperidin-1-yl)phenyl]-5-methoxy-3-(1-phenyl-1H-pyrazol-5-yl)pyridazin-4(1H)-one] | 100% | < 10 nM | –
COc1cn(-c2ccc(N3CCC(F)(F)C3)cc2F)nc(-c2ccnn2-c2ccccc2)c1=O [Example 103, 1-[4-(3,3-Difluoropyrrolidin-1-yl)-2-fluorophenyl]-5-methoxy-3-(1-phenyl-1H-pyrazol-5-yl)pyridazin-4(1H)-one] | 99% | < 10 nM | –
COc1cn(-c2ccc(-n3ccnc3)cc2F)nc(-c2ccnn2-c2ccccc2)c1=O [Example 111, 1-[2-Fluoro-4-(1H-imidazol-1-yl)phenyl]-5-methoxy-3-(1-phenyl-1H-pyrazol-5-yl)pyridazin-4(1H)-one] | 97% | < 10 nM | –
